In ChEMBL document CHEMBL1938259, “Novel substituted pyrimidines as HCV replication (replicase) inhibitors” (Bioorg Med Chem Lett, 2012):

Columns and labels:
[1] = tested on: Rattus norvegicus; test: AUC (0 to 24 hrs) in rat at 10 mg/kg, po and 2 mg/kg, iv; type: ADME, organism-based, Plasma; details: in vivo
[2] = tested on: Canis familiaris; test: AUC (0 to 24 hrs) in dog at 2 mg/kg, po; type: ADME, organism-based, Canis lupus familiaris, Plasma; design: time < 24 hr, dose 2 mg/kg, route oral; details: in vivo

| Structure (SMILES) | AUC [1] [µM·h] | AUC [2] [µM·h] |
| --- | --- | --- |
| Nc1nc(Cl)c(C#Cc2nccs2)c(N[C@@H]2C[C@H](CO)[C@@H](O)[C@H]2O)n1 | 0.6 |  |
| Nc1nc(Cl)c(C#Cc2ccsc2)c(N[C@@H]2C[C@H](CO)[C@@H](O)[C@H]2O)n1 | 1.6 | 2.2 |
